From article PMC10622577, “Structural basis for stabilisation of the RAD51 nucleoprotein filament by BRCA2” (Nature Communications, 2023)

Columns and labels:
[1] = tested on: RAD51 NPFs; experiment: cryo-electron micrographs, bundling of RAD51 NPFs on uncapped DNA; design: species or system human; conditions: 1:0.5 molar ratio of TR2 peptide; uncapped ss- and dsDNA; two independent repeats
Source text: (§1) To understand the structural basis for the association of the BRCA2 C-terminus with the RAD51 nucleoprotein filament, we sought to determine the structure of a RAD51-DNA-TR2 filament by high-resolution cryo-electron microscopy (cryoEM). […] Individual filaments within a bundle appeared to be in translational register relative to each other as it was possible to obtain well-resolved 2D classes of filament pairs (Supplementary fig. 5A, Supplementary Table 1). Filament aggregation induced by TR2 complicated picking of individual filament particles and prevented structural determination by cryoEM. We therefore sought to develop a method to prepare RAD51 NPFs in the presence of TR2 peptide without causing filament bundling. We reasoned that bundling might be alleviated by capping the DNA substrate with a bulky tag, to prevent filament aggregation by steric interference. We therefore prepared ss- and dsDNA substrates with a biotin tag at either one end or both ends, that could be bound by monomeric streptavidin (mSA) (Supplementary Fig. 5B, Supplementary Table 1).
(§2) Fig. 2 BRCA2 TR2 induces bundling of RAD51 nucleoprotein filaments. A Cryo-electron micrographs of RAD51 NPFs formed on ssDNA and dsDNA in the presence of 1:0.5 molar ratio of TR2 peptide. Extensive NPF aggregation into bundles of aligned filaments is clearly visible (examples marked with dashed white boxes). Two independent repeats. […]

[2] = tested on: DNA; conditions: cited from earlier work
Source text: Our cryoEM maps let us model a highly conserved portion of BRCA2 TR2 that spans residues F3289 to C3304. TR2 sequence conservation extends N-terminally to our model, up to K3263. […] Indeed, the bi ...

[3] = tested on: RAD51 NPFs on mSA-capped DNA; experiment: cryo-electron micrographs, bundling of RAD51 NPFs on mSA-capped DNA; design: species or system human; conditions: 1:0.5 molar ratio of TR2 peptide and mSA; ss- and dsDNA; two independent repeats
Source text: as §1, §2

DDQKNCKKRRALDFLSRLPLPPPVSPICTFVSPAAQKAFQPPRSCGTKY [TR2, BRCA2 TR2 peptide spanning amino acids 3260 to 3308]
bundling of RAD51 NPFs [1]: extensive bundling of RAD51 NPFs with both ss- and dsDNA
DNA-binding activity of TR2 [2]: harbours a DNA-binding activity centred on residues 3266-KKRR-3269
bundling of RAD51 NPFs on mSA-capped DNA [3]: no bundling in the presence of TR2
